Measured values: ChEMBL document CHEMBL1153245, “A profile of the in vitro anti-tumor activity of imidazolium-based ionic liquids” (2010)

Legend:
Assay type in all cases: functional
SF-295 = assay: Anticancer activity against human SF295 cells assessed cell growth at 10 uM after 48 hrs by sulforhodamine B assay relative to control
OVCAR-5 = assay: Anticancer activity against human OVCAR5 cells assessed cell growth at 10 uM after 48 hrs by sulforhodamine B assay relative to control
SW-620 = assay: Anticancer activity against human SW620 cells assessed cell growth at 10 uM after 48 hrs by sulforhodamine B assay relative to control
A498 = assay: Anticancer activity against human A498 cells assessed cell growth at 10 uM after 48 hrs by sulforhodamine B assay relative to control
SF-268 = assay: Anticancer activity against human SF268 cells assessed cell growth at 10 uM after 48 hrs by sulforhodamine B assay relative to control
T47D = assay: Anticancer activity against human T47D cells assessed cell growth at 10 uM after 48 hrs by sulforhodamine B assay relative to control
MDA-MB-435 = assay: Anticancer activity against human MDA-MB-435 cells assessed cell growth at 10 uM after 48 hrs by sulforhodamine B assay relative to control
MCF7 = assay: Anticancer activity against human MCF7 cells assessed cell growth at 10 uM after 48 hrs by sulforhodamine B assay relative to control
OVCAR-8 = assay: Anticancer activity against human OVCAR8 cells assessed cell growth at 10 uM after 48 hrs by sulforhodamine B assay relative to control
SK-OV-3 = assay: Anticancer activity against human SKOV3 cells assessed cell growth at 10 uM after 48 hrs by sulforhodamine B assay relative to control
KM12 = assay: Anticancer activity against human KM12 cells assessed cell growth at 10 uM after 48 hrs by sulforhodamine B assay relative to control
HCT-15 = assay: Anticancer activity against human HCT15 cells assessed cell growth at 10 uM after 48 hrs by sulforhodamine B assay relative to control
TK-10 = assay: Anticancer activity against human TK10 cells assessed cell growth at 10 uM after 48 hrs by sulforhodamine B assay relative to control
HCT-116 = assay: Anticancer activity against human HCT116 cells assessed cell growth at 10 uM after 48 hrs by sulforhodamine B assay relative to control

| SMILES | Activity (SF-295) [%] | Activity (OVCAR-5) [%] | Activity (SW-620) [%] | Activity (A498) [%] | Activity (SF-268) [%] | Activity (T47D) [%] | Activity (MDA-MB-435) [%] | Activity (MCF7) [%] | Activity (OVCAR-8) [%] | Activity (SK-OV-3) [%] | Activity (KM12) [%] | Activity (HCT-15) [%] | Activity (TK-10) [%] | Activity (HCT-116) [%] |
| --- | --- | --- | --- | --- | --- | --- | --- | --- | --- | --- | --- | --- | --- | --- |
| Cn1cc[n+](Cc2ccccc2)c1.F[P-](F)(F)(F)(F)F | 115.95 | 101.34 | 118.52 | 112.56 | 108.05 | 90.49 | 117.55 | 102.21 | 108.71 | 109.97 | 110.94 | 106.14 | 133.23 | 107.98 |
| CCCCCCCC[n+]1ccn(C)c1.[Cl-] | 101.39 | 101.85 | 89.37 | 101.4 | 95.77 | 87.08 | 70.46 | 79.81 | 77.68 | 98.42 | 81.14 | 111.4 | 77.56 | 62.3 |
| CCCCCC[n+]1ccn(C)c1.O=S(=O)([N-]S(=O)(=O)C(F)(F)F)C(F)(F)F | 101.37 | 105.87 | 99.75 | 84.14 | 109.15 |  | 93.37 | 106.75 | 84.83 | 95.29 | 100.77 | 105.5 | 124.14 | 80.77 |
| CCCCCC[n+]1ccn(C)c1.FC(F)(F)C(F)(F)[P-](F)(F)(F)(C(F)(F)C(F)(F)F)C(F)(F)C(F)(F)F | 70.02 | 105.17 | 80.17 | 75.58 | 103.36 | 55.53 | 51.22 | 62.49 | 60.84 | 85.24 | 91.54 | 91.62 | 67.04 | 32.03 |
| Cn1cc[n+](CCO)c1.O=S(=O)([N-]S(=O)(=O)C(F)(F)F)C(F)(F)F | 128.56 |  | 103.41 | 79.55 | 104.78 | 100.5 | 116.12 | 105.11 | 93.89 | 102.56 | 107.33 | 90.93 | 125.47 | 100.02 |
